Calls of active or inactive are those of the source. The calls are words filed in the database; no cut-off is given here.
Experiments:
[1] = biological target: T1, Kinesin-like protein KIF11 (Homo sapiens, UniProt P52732); experiment: Inhibition of KSP in human HCT116 cells assessed as phos-histone H3 level by immunofluorescent assay; type: cell-based, HCT-116
T1 sequence (P52732 whole entry): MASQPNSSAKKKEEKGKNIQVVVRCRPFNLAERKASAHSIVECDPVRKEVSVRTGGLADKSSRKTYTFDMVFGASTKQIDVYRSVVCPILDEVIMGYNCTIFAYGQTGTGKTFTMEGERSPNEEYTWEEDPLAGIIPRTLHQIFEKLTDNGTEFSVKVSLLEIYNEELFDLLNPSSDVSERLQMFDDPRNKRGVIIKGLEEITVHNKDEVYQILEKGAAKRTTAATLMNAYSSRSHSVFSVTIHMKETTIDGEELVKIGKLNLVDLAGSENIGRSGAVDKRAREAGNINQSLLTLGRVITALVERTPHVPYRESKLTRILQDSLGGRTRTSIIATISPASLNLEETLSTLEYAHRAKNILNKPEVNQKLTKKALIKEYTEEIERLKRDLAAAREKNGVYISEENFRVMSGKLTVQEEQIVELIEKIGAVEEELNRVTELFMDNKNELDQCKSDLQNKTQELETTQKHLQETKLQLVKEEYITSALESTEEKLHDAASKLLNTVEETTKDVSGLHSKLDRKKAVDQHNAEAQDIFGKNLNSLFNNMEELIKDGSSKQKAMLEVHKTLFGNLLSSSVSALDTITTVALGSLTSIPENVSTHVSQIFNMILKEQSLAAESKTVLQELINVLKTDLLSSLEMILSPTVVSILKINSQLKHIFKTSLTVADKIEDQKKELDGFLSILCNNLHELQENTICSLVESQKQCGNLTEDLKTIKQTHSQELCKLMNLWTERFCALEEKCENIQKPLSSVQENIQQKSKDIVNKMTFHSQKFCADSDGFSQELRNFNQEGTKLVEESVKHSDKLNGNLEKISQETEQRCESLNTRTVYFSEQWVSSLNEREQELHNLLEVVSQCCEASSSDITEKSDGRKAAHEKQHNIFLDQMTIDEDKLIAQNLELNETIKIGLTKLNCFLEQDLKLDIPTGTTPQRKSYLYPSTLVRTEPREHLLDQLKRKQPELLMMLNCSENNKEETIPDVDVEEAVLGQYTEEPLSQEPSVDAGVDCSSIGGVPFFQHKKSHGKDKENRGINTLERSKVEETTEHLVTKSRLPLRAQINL

[2] = Retention time of the compound; type: physicochemical
HCT-116 [3] = experiment: Induction of mitotic arrest in human HCT116 cells assessed as increase in 4N DNA content at 1.6 nM after 16 hrs by propidium iodine staining based FACS analysis; type: functional
[4] = Cmax in Sprague-Dawley rat at 50 mg/kg, po; type: ADME, organism-based; design: dose 50 mg/kg, route oral; details: in vivo
[5] = Half life in Sprague-Dawley rat at 1 mg/kg, iv; type: ADME, organism-based; design: dose 1 mg/kg, route intravenous; details: in vivo
[6] = Cmax in CD1 mouse at 5 mg/kg, po; type: ADME, organism-based; design: dose 5 mg/kg, route oral; details: in vivo
[7] = Half life in beagle dog at 1 mg/kg, iv; type: ADME, organism-based, Canis lupus familiaris; design: dose 1 mg/kg, route intravenous; details: in vivo
HCT-116 [8] = experiment: Induction of mitotic arrest in human HCT116 cells assessed as increase in […] spindle formation at 6.25 nM after 16 hrs by propidium iodine staining based FACS analysis; type: functional, cell-based
[9] = AUC in beagle dog at 1 mg/kg, iv; type: ADME, organism-based, Canis lupus familiaris; design: dose 1 mg/kg, route intravenous; details: plasma
[10] = AUC in Sprague-Dawley rat at 50 mg/kg, po; type: ADME, organism-based; design: dose 50 mg/kg, route oral; details: plasma
[11] = Oral bioavailability in beagle dog at 5 mg/kg; type: ADME, organism-based, Canis lupus familiaris; details: in vivo
[12] = Clearance in beagle dog at 1 mg/kg, iv; type: ADME, organism-based, Canis lupus familiaris; design: dose 1 mg/kg, route intravenous; details: in vivo
[13] = Cmax in beagle dog at 5 mg/kg, po; type: ADME, organism-based, Canis lupus familiaris; design: dose 5 mg/kg, route oral; details: in vivo
[14] = Oral bioavailability in Sprague-Dawley rat at 50 mg/kg; type: ADME, organism-based; details: in vivo
[15] = AUC in Sprague-Dawley rat at 1 mg/kg, iv; type: ADME, organism-based; design: dose 1 mg/kg, route intravenous; details: plasma
HCT-116 [16] = experiment: Induction of mitotic arrest in human HCT116 cells assessed as increase mitosis at 1.6 nM after 24 hrs by propidium iodine staining based FACS analysis; type: functional, cell-based
[17] = AUC in CD1 mouse at 5 mg/kg, po; type: ADME, organism-based; design: dose 5 mg/kg, route oral; details: plasma
[18] = Clearance in CD1 mouse at 5 mg/kg, iv; type: ADME, organism-based; design: dose 5 mg/kg, route intravenous; details: in vivo
[19] = Volume of distribution at steady state in Sprague-Dawley rat at 1 mg/kg, iv; type: ADME, organism-based; design: dose 1 mg/kg, route intravenous; details: in vivo, read-out: Vdss
[20] = AUC in beagle dog at 5 mg/kg, po; type: ADME, organism-based, Canis lupus familiaris; design: dose 5 mg/kg, route oral; details: plasma
[21] = Volume of distribution at steady state in beagle dog at 1 mg/kg, iv; type: ADME, organism-based, Canis lupus familiaris; design: dose 1 mg/kg, route intravenous; details: in vivo, read-out: Vdss
[22] = Half life in CD1 mouse at 5 mg/kg, iv; type: ADME, organism-based; design: dose 5 mg/kg, route intravenous; details: in vivo
[23] = Oral bioavailability in CD1 mouse at 5 mg/kg; type: ADME, organism-based; details: in vivo
[24] = Clearance in Sprague-Dawley rat at 1 mg/kg, iv; type: ADME, organism-based; design: dose 1 mg/kg, route intravenous; details: in vivo
[25] = AUC in CD1 mouse at 5 mg/kg, iv; type: ADME, organism-based; design: dose 5 mg/kg, route intravenous; details: plasma
[26] = Volume of distribution at steady state in CD1 mouse at 5 mg/kg, iv; type: ADME, organism-based; design: dose 5 mg/kg, route intravenous; details: in vivo, read-out: Vdss
[27] = AUC in Sprague-Dawley rat at 10 mg/kg, po; type: ADME, organism-based; design: dose 10 mg/kg, route oral; details: plasma
[28] = Antitumor activity against human U373 cells xenografted in mouse assessed as tumor growth inhibition at 7.5 mg/kg, po q3d measured on day 35; type: functional, U-373MG ATCC; details: 840 h
[29] = Oral bioavailability in beagle dog at 10 mg/kg; type: ADME, organism-based, Canis lupus familiaris; details: in vivo
[30] = Oral bioavailability in Sprague-Dawley rat at 10 mg/kg; type: ADME, organism-based; details: in vivo
[31] = Antitumor activity against human U373 cells xenografted in mouse assessed as tumor growth inhibition at 5 mg/kg, po q3d measured on day 35; type: functional, U-373MG ATCC; details: 840 h
[32] = Permeability across basolateral to apical side in human Caco2 cells; type: ADME, cell-based; details: Caco-2, read-out: permeability
[33] = Cmax in beagle dog at 10 mg/kg, po; type: ADME, organism-based, Canis lupus familiaris; design: dose 10 mg/kg, route oral; details: in vivo
[34] = Cmax in Sprague-Dawley rat at 10 mg/kg, po; type: ADME, organism-based; design: dose 10 mg/kg, route oral; details: in vivo
[35] = AUC in beagle dog at 10 mg/kg, po; type: ADME, organism-based, Canis lupus familiaris; design: dose 10 mg/kg, route oral; details: plasma
[36] = Oral bioavailability in monkey; type: ADME, organism-based, Macaca mulatta; details: rhesus monkey, in vivo
[37] = Antitumor activity against human COLO205 cells xenografted in mouse assessed as tumor growth inhibition at 7.5 mg/kg, po q3d measured on day 35; type: functional; details: COLO 205, 840 h
[38] = AUC in CD1 mouse at 10 mg/kg, po; type: ADME, organism-based; design: dose 10 mg/kg, route oral; details: plasma
[39] = Permeability across apical to basolateral side in human Caco2 cells; type: ADME, cell-based; details: Caco-2, read-out: permeability
[40] = Antitumor activity against human COLO205 cells xenografted in mouse assessed as tumor growth inhibition at 5 mg/kg, po q3d measured on day 35; type: functional; details: COLO 205, 840 h
[41] = AUC ratio of drug uptake from brain to plasma in rat; type: ADME
[42] = AUC ratio of drug uptake from brain to plasma in mouse; type: ADME, organism-based
[43] = Cmax in CD1 mouse at 10 mg/kg, po; type: ADME, organism-based; design: dose 10 mg/kg, route oral; details: in vivo
[44] = Oral bioavailability in CD1 mouse at 10 mg/kg; type: ADME, organism-based; details: in vivo

CC(=O)N1N=C(c2cc(F)ccc2F)S[C@@]12c1cc(Cl)ccc1OC[C@H]2CCN
EC50 [1]: 17 nM

CCC(=O)N1N=C(c2cc(F)ccc2F)SC12CCOc1ccccc12 (centres undefined)
EC50 [1]: 452 nM

CC(=O)N1N=C(c2cc(F)ccc2F)S[C@]12c1ccccc1OC[C@@H]2CCN
EC50 [1]: > 1000 nM
Retention_time [2]: 2.33 min

CC(=O)N1N=C(c2cc(F)ccc2F)S[C@@]12c1ccccc1OC[C@H]2CCN
EC50 [1]: 2 nM
Activity (HCT-116 [3]): 70%
Cmax [4]: 600 nM
half-life [5]: 2 h
Cmax [6]: 100 nM
half-life [7]: 3.9 h
Activity (HCT-116 [8]): Active
AUC [9]: 3 µM·h
AUC [10]: 3.6 µM·h
Retention_time [2]: 4.08 min
bioavailability [11]: 9%
clearance [12]: 13.7 mL/min/kg
Cmax [13]: 300 nM
bioavailability [14]: 9%
AUC [15]: 0.8 µM·h
Activity (HCT-116 [16]): Active
AUC [17]: 0.3 µM·h
clearance [18]: 90 mL/min/kg
Vd [19]: 8.6 L/kg
AUC [20]: 1.4 µM·h
Vd [21]: 3.9 L/kg
half-life [22]: 1.8 h
bioavailability [23]: 12%
clearance [24]: 46 mL/min/kg
AUC [25]: 2.3 µM·h
Vd [26]: 6.4 L/kg

CC(=O)N1N=C(c2cc(F)ccc2F)S[C@@]12c1cc(F)c(F)cc1OC[C@H]2CCN
EC50 [1]: 3 nM
AUC [27]: 2.5 µM·h
inhibition in vivo at 7.5 mg/kg [28]: 69%
bioavailability [29]: 44%
AUC [9]: 3.1 µM·h
bioavailability [30]: 64%
inhibition in vivo at 5 mg/kg [31]: 31%
Papp B→A [32]: 11.5 ×10⁻⁶ cm/s
Cmax [33]: 500 nM
Cmax [34]: 220 nM
clearance [12]: 12 mL/min/kg
AUC [35]: 6.9 µM·h
bioavailability [36]: 53%
AUC [15]: 0.8 µM·h
inhibition in vivo at 7.5 mg/kg [37]: 126%
AUC [38]: 7.9 µM·h
Papp A→B [39]: 10.6 ×10⁻⁶ cm/s
clearance [18]: 42 mL/min/kg
inhibition in vivo at 5 mg/kg [40]: 116%
Kp [41]: 4
Kp [42]: 4
clearance [24]: 49 mL/min/kg
AUC [25]: 4.6 µM·h
Cmax [43]: 1030 nM
bioavailability [44]: 87%

CC(=O)N1N=C(c2cc(F)ccc2F)SC12CCN(C)c1ccccc12 (centres undefined)
EC50 [1]: > 1000 nM

CC(=O)N1N=C(c2cc(F)ccc2F)SC12CCOc1ccccc12 (centres undefined)
EC50 [1]: 139 nM

COCC(=O)N1N=C(c2cc(F)ccc2F)SC12CCOc1ccccc12 (centres undefined)
EC50 [1]: 665 nM

CC(=O)N1N=C(c2cc(F)ccc2F)SC12CCNc1ccccc12 (centres undefined)
EC50 [1]: 179 nM

NCCCC(=O)N1N=C(c2cc(F)ccc2F)SC12CCOc1ccccc12 (centres undefined)
EC50 [1]: 338 nM

CC(=O)N1N=C(c2cc(F)ccc2F)S[C@]12c1ccccc1OC[C@H]2CCN
EC50 [1]: 205 nM
Retention_time [2]: 2.15 min

NCC(=O)N1N=C(c2cc(F)ccc2F)SC12CCOc1ccccc12 (centres undefined)
EC50 [1]: > 1000 nM

CC(=O)N1N=C(c2cc(F)ccc2F)S[C@@]12c1cccc(F)c1OC[C@H]2CCN
EC50 [1]: 5 nM
AUC [38]: 1.3 µM·h
clearance [18]: 136 mL/min/kg
AUC [25]: 1.5 µM·h
Cmax [43]: 430 nM
bioavailability [44]: 46%

Reference: ChEMBL document CHEMBL3400149, “Discovery of novel spiro 1,3,4-thiadiazolines as potent, orally bioavailable and brain penetrant KSP inhibitors” (Bioorg Med Chem, 2015)
